# Results reported in patent US6949250B2, “Selective algaecides for control of cyanochloronta” (The United States of America as represented by the …, priority 2002, dated 2005).
# Tests used:
# Raphidiopsis brookii [1] = experiment: DNA2-59-1 third pond efficacy study: Raphidiopsis brookii abundance; type: in vivo; settings: 0.3 μM, one day after application
# Protocol: (§1) The method described by Schrader et al. (2000) was used to determine the potential for using the anthraquinone derivatives as selective algicides in catfish aquaculture ponds. All catfish ponds used in efficacy tests were maintained using commercial pond management practices and were located at the Thad Cochran Pond Facility, Mississippi State University, Stoneville, Miss. Anthraquinone analogs were dissolved in deionized water before application to water within the limnocorrals.
# (§2) Limnocorrals in which test compound was applied to the enclosed water were randomly selected, and control (no test compound applied) limnocorrals were included in each efficacy study. For each sampling, two water samples (250 mL) were obtained from within each limnocorral (approximately 6-8 cm below the water surface and from opposite sides of each limnocorral) and mixed together in a 500 mL sample bottle to provide a representative sample of the water contained within the limnocorral.
# (§3) For the third efficacy test with DNA2-59-1, twelve limnocorrals (2.44 m in diameter and 1.53 m high) were placed in a 4-ha earthen pond containing a bloom of O. perornata. […]
# Oscillatoria agardhii = experiment: DNA2-59-1 third pond efficacy study: Oscillatoria agardhii abundance; type: in vivo; settings: 0.3 μM
# Protocol: as §1, §2, §3
# Raphidiopsis brookii [2] = experiment: DNA2-59-1 second pond efficacy study: Raphidiopsis brookii abundance; type: in vivo; settings: 0.3 μM, within three days of application
# Protocol: as §1, §2
# (§4) In the second efficacy test with DNA2-59-1, six limnocorrals (1.53 m in diameter and 1.53 m high) were placed in a 0.1-ha earthen pond containing a heavy bloom of O. perornata. The same delay in mixing the water within the limnocorrals used in the first efficacy study was utilized. Water within three randomly selected limnocorrals received an application rate of 0.3 μM DNA2-59-1, and the other three limnocorrals were controls. […]
# Microcystis spp. = experiment: DNA2-59-1 third pond efficacy study: Microcystis spp. abundance; type: in vivo; settings: 0.3 μM
# Protocol: as §1, §2, §3
# chlorophyll a [3] = experiment: DNA2-59-1 second pond efficacy study: chlorophyll a; type: in vivo; settings: 0.3 μM, for three days after application
# Protocol: as §1, §2, §4
# Oscillatoria perornata = experiment: DNA2-59-1 third pond efficacy study: O. perornata abundance; type: in vivo; settings: 0.3 μM, within 24 hours after application
# Protocol: as §1, §2, §3
# 2-methylisoborneol [4] = experiment: DNA2-59-1 second pond efficacy study: MIB levels; type: in vivo; settings: 0.3 μM, after three days
# Protocol: as §1, §2, §4
# 2-methylisoborneol [5] = experiment: DNA1-19-1 first pond efficacy study (limnocorrals): MIB levels; type: in vivo; settings: 2 μM
# chlorophyll a [6] = experiment: DNA1-19-1 second and third pond efficacy studies: chlorophyll a; type: in vivo; settings: second and third efficacy study; 1, 0.3, and 0.1 μM
# Protocol: as §1, §2
# In the second study with DNA1-19-1, twelve limnocorrals that were the same size as those used in the first study were placed in another 4-ha earthen catfish pond. […] The sampling regime and procedures used in the first study were followed in a similar manner, except that water samples were obtained before DNA1-19-1 application, 16 hours after application, and at days 2, 4, and 7. […]
# [7] = Detection of DNA1-19-1 in pond water samples; type: physicochemical; settings: samples collected at and after 24 hours after application to water within limnocorrals
# From the text: The attempts to develop a reproducible analytical method to determine the levels of DNA1-19-1 in the pond water were unsuccessful. DNA1-19-1 is believed to bind quickly to suspended soil particles due to the positively charged nature of the 2-methylamino chain; evident by the lack of detection of DNA1-19-1 in the water. Since the levels of suspended soil particles in each water sample varied and an accurate measurement of the soil particles present in each sample could not be obtained, the consistent recoveries of DNA1-19-1 from the particulate portions of water samples could not be achieved.
# green algae = experiment: DNA1-19-1 first pond efficacy study (limnocorrals): green algae abundance; type: in vivo, green algae (Division Chlorophyta); settings: 2 μM, until 10 days after application, LSD
# Protocol: as §1, §2
# Three pond efficacy studies were conducted with DNA1-19-1. […] To perform phytoplankton identification and enumeration, water samples were processed by preserving 50-mL subsamples with Lugol's solution and storing them at 4° C. until they could be identified and counted as “natural units” (i.e., colonies, filaments, or unialgal cells) using a Sedgewick-Rafter counting chamber at 300× magnification. […]
Structure (SMILES),Numbers of Raphidiopsis brookii (result in words) (Raphidiopsis brookii [1]),Numbers of Oscillatoria agardhii (result in words) (Oscillatoria agardhii),Numbers of Raphidiopsis brookii (result in words) (Raphidiopsis brookii [2]),Microcystis spp. compared to control limnocorrals (result in words) (Microcystis spp.),Chlorophyll a levels (result in words) (chlorophyll a [3]),Numbers of O. perornata (result in words) (Oscillatoria perornata),Levels of MIB (result in words) (2-methylisoborneol [4]),Levels of MIB after reduction (2-methylisoborneol [5]),time MIB levels remained much lower than in the controls (2-methylisoborneol [5]),Levels of MIB before reduction (2-methylisoborneol [5]; ng/mL (ppb)),chlorophyll a levels compared to controls (result in words) (chlorophyll a [6]),detection in soluble fractions of water samples (result in words) [7],"Numbers of green algae, treated vs controls (result in words) (green algae)"
"CC(C)NCc1ccc2c(c1)C(=O)c1ccccc1C2=O [DNA2-59-1, 2-[methylamino-N-(1′-methylethyl)]-9,10-anthraquinone monophosphate]",significantly reduced,significantly reduced,significantly and dramatically reduced,not greatly affected,significantly lower,significantly reduced,significantly reduced,,,,,,
"CCN(CC)CCCC(C)NCc1ccc2c(c1)C(=O)c1ccccc1C2=O.O=P(O)(O)O.O=P(O)(O)O (stereo not shown) [DNA1-19-1, 2-[methylamino-N-(1′-methyl-4′-N,N-diethylaminobutyl)]-9,10-anthraquinone diphosphate]",,,,,,,,~970 ng/mL,8 days,"15,250 ng/mL",lack of reduction,could not be detected,not significantly different
